Laboratory results published in article PMC8692581, “A specific inhibitor of ALDH1A3 regulates retinoic acid biosynthesis in glioma stem cells” (Communications Biology, 2021).

What was measured:
[1] = molecular target: T1, ALDH1A1 (Homo sapiens, UniProt P00352); assay: steady-state enzyme kinetics, NADH absorbance at […] nm ([…] activity retained at […] inhibitor); type: biochemical
T1 construct: full-length, N-term 6xHis tagged
T1 sequence (P00352 1-501): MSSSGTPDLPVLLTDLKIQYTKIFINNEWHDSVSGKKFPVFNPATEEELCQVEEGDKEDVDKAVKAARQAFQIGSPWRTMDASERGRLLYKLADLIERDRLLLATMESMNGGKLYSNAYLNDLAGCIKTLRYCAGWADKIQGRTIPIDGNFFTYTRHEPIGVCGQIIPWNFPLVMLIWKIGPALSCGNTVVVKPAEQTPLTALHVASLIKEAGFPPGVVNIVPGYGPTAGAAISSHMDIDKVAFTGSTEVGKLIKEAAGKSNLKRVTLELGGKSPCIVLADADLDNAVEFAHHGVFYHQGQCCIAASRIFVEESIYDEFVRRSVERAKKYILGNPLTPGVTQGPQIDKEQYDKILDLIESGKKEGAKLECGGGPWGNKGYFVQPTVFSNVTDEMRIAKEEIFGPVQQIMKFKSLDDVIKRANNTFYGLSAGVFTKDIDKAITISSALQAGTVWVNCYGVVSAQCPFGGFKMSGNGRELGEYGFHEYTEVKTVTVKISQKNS

[2] = molecular target: T2, ALDH1A3 (Homo sapiens, UniProt P47895); assay: X-ray co-crystal structure ([…] Å); steady-state enzyme inhibition kinetics (IC50 […]); thermal shift MS in GSC-326 lysate; type: biochemical
T2 construct: full-length, N-term 6xHis tagged
T2 sequence (P47895 1-512): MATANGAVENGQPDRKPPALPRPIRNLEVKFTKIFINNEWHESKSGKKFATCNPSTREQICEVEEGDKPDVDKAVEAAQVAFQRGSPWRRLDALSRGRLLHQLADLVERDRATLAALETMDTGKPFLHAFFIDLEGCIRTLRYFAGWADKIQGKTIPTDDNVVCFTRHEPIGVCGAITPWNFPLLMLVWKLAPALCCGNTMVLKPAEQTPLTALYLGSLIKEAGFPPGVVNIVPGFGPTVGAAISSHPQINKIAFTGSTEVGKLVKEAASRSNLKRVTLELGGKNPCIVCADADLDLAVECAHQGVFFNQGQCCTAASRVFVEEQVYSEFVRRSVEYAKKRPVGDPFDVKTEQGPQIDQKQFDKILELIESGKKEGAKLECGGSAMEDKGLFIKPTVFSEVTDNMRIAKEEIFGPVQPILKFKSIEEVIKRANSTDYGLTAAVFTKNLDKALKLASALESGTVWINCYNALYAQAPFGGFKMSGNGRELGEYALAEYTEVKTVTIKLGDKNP

[3] = molecular target: T2, ALDH1A3; assay: X-ray crystal structure ([…] Å), ternary with MCI-INI-3; crystals grown with […] NAD+; type: binding

| Structure (SMILES) | Ki [1] [µM] | Ki [2] [nM] | X-ray crystal structure (2.8 Å), ternary with MCI-INI-3; crystals grown with 1 m [3] |
| --- | --- | --- | --- |
| COC(=O)c1cc(-c2ccc3c(c2)OCO3)nc2cc(-c3ccccc3)nn12 [MCI-INI-3] | 78.2 ± 14.4 | 550 ± 110 | – |
| NC(=O)c1ccc[n+]([C@@H]2O[C@H](COP(=O)([O-])OP(=O)(O)OC[C@H]3O[C@@H](n4cnc5c(N)ncnc54)[C@H](O)[C@@H]3O)[C@@H](O)[C@H]2O)c1 [NAD^+] | – | – | The ligands NAD^+ and MCI-INI-3 are shown as gray and black sticks. |
